Data from the supplement of paper PMC10307832.

Assays:
Assay in all cases: relative viability (nuclei count vs DMSO), 5 days (fraction); higher = more cells survive
[1] = compound: O[C@H]1CC[C@H](Nc2ncc3nc(Nc4c(F)cc(F)cc4F)n([C@H]4CCOC4)c3n2)CC1 [Tanzisertib] + Nc1ncn([C@H]2C[C@H](O)[C@@H](CO)O2)c(=O)n1 [Decitabine] (partner 2 µM)
Summary of the method: (§1)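 The day after seeding in 1536-well plates, lung cancer cell lines were treated by pin tool with a single drug, or with a fixed anchor-drug dose together with five library-drug doses (not always all listed) in √10 steps. After 5 days, a combined fix-and-stain solution (final 0.05% Triton X-100, 1% formaldehyde, 1 ug/ml Hoechst) was added. Nuclei counted on 4× images gave relative viability as treated counts over vehicle counts, reported as the median of duplicate plates.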

[2] = compound: C[C@@H](N)c1ccc(C(=O)Nc2ccnc3[nH]ccc23)cc1 + CC(=O)c1c(C)c2cnc(Nc3ccc(N4CCNCC4)cn3)nc2n(C2CCCC2)c1=O [Palbociclib] (partner 0.5 µM)
Summary of the method: as §1

[3] = compound: C[C@@H](N)c1ccc(C(=O)Nc2ccnc3[nH]ccc23)cc1 + COc1cc2c(Oc3ccc(NC(=O)C4(C(=O)Nc5ccc(F)cc5)CC4)cc3F)ccnc2cc1OCCCN1CCOCC1 [Foretinib] (partner 0.25 µM)
Summary of the method: as §1

[4] = compound: C1CNCCC1C2=CC(=NN2)C3=CC=NC=C3 + O=C(c1cc(Cc2n[nH]c(=O)c3ccccc23)ccc1F)N1CCN(C(=O)C2CC2)CC1 [Olaparib] (partner 8 µM)
Summary of the method: as §1

| Cell Line | relative viability ([1]; first compound 0.08 µM) | relative viability ([1]; first compound 0.253 µM) | relative viability ([1]; first compound 0.8 µM) | relative viability ([1]; first compound 2.53 µM) | relative viability ([1]; first compound 8 µM) | relative viability ([2]; first compound 0.04 µM) | relative viability ([2]; first compound 0.1265 µM) | relative viability ([2]; first compound 0.4 µM) | relative viability ([2]; first compound 1.265 µM) | relative viability ([2]; first compound 4 µM) | relative viability ([3]; first compound 0.04 µM) | relative viability ([3]; first compound 0.1265 µM) | relative viability ([3]; first compound 0.4 µM) | relative viability ([3]; first compound 4 µM) | relative viability ([4]; first compound 0.08 µM) | relative viability ([4]; first compound 0.8 µM) | relative viability ([4]; first compound 2.53 µM) | relative viability ([4]; first compound 8 µM) | relative viability ([3]; first compound 1.265 µM) |
| --- | --- | --- | --- | --- | --- | --- | --- | --- | --- | --- | --- | --- | --- | --- | --- | --- | --- | --- | --- |
| 201T | 0.862 | 0.902 | 0.853 | 0.857 | 0.85 | 0.367 | 0.342 | 0.376 | 0.359 | 0.415 | 1.1 | 1.04 | 1.25 | 1.31 | 0.832 | 0.863 | 0.832 | 0.858 |  |
| A549 | 0.246 | 0.25 | 0.277 | 0.267 | 0.127 |  |  |  |  |  | 1.09 | 0.98 | 1.07 | 0.515 | 0.345 | 0.303 | 0.435 | 0.367 | 0.776 |
| A-427 | 0.58 | 0.567 | 0.569 | 0.537 | 0.631 | 0.472 | 0.553 | 0.388 | 0.432 | 0.421 | 1.13 | 1 | 1.14 | 1.07 | 0.589 | 0.775 | 0.752 | 0.716 |  |
| ABC-1 | 1.03 | 0.958 | 0.976 | 1.18 | 0.836 | 0.662 | 0.775 | 0.789 | 0.976 | 0.552 | 1.25 | 1.12 | 1.34 | 0.993 | 0.826 | 0.795 | 1.15 | 0.84 |  |
| BEN | 0.707 | 0.766 | 0.782 | 0.702 | 0.57 | 0.483 | 0.425 | 0.438 | 0.587 | 0.449 | 0.331 | 0.525 | 0.878 | 0.4 | 1.01 | 1.09 | 1.2 | 0.967 | 0.689 |
| CAL-12T |  |  |  |  |  | 0.558 | 0.438 | 0.519 | 0.161 | 0.428 | 1.36 | 1.27 | 1.13 | 0.909 | 0.676 | 0.665 | 0.753 | 0.719 | 1.27 |
| COR-L23 | 0.454 | 0.502 | 0.411 | 0.511 | 0.467 | 0.231 | 0.357 | 0.305 | 0.235 | 0.215 | 0.943 | 1.01 | 1.02 | 0.534 | 0.287 | 0.344 | 0.323 | 0.406 | 0.938 |
| COR-L 105 | 0.697 | 0.659 | 0.643 | 0.751 | 0.538 | 0.377 | 0.399 | 0.424 | 0.348 | 0.371 | 0.755 | 0.939 | 1.03 | 0.761 | 0.7 | 0.721 | 0.675 | 0.746 | 0.865 |
| Calu-6 |  |  |  |  |  |  |  |  |  |  | 0.981 | 0.973 | 0.878 | 0.742 | 0.565 | 0.6 | 0.62 | 0.497 | 0.807 |
| ChaGo-K-1 | 0.519 | 0.531 | 0.493 | 0.512 | 0.537 | 0.923 | 0.908 | 0.947 | 0.893 | 0.865 | 0.93 | 0.955 | 0.885 | 0.799 | 0.546 | 0.426 | 0.435 | 0.362 | 0.918 |
